# Values of other authors in patent publication US20120322745A1, “OPTIMIZED METHOD FOR OBTAINING ACE ACTIVITY INHIBITORY PEPTIDES FROM WHEY, ACE INHIBITORY PEPTIDES AND FOOD COMPRISING THEM” (QUEIZUAR ,S.L., priority 2011, published 2012).
# Target: angiotensin converting enzyme (ACE)
# Settings: ACE inhibitory peptides obtained by enzymatic hydrolysis of whey proteins
row,IC50 [µM],Substance
1,521,"ALPMH (UniProt P02754 158-162, looked up, fragment) [β-Lg f(142-146)]"
2,42.6,ALPMHIR [β-Lg (f 142-148)]
3,788,CMENSA [β-Lg f(106-111)]
4,635,LDAQSAPLR [β-Lg f(32-40)]
5,> 2700,LKPTPEGN [β-Lg (f 46-53)]
6,327,VGINYWLAHK [α-La f(99-108)]
7,946,VLDTDYK [β-Lg f(94-100)]
8,77,WLAHK [α-La f(104-108)]
9,172,"β-Lg (f 102-105): ACE inhibitory peptide, sequence YLLF, from hydrolysis with pepsin, trypsin, chemotrypsin (UniProt P02754 118-121, looked up, fragment)"
10,2470,"β-Lg (f 122-125): ACE inhibitory peptide, sequence LVRT, from whey protein hydrolysis with thermolysin (UniProt P02754 138-141, looked up, fragment)"
11,1050,"β-Lg f(15-19): ACE inhibitory peptide, sequence VAGT, from hydrolysis with pepsin, trypsin, chemotrypsin"
12,556,"β-Lg f(22-25): ACE inhibitory peptide, sequence LAMA, from whey protein hydrolysis with trypsin (UniProt P02754 38-41, looked up, fragment)"
13,34.7,"β-Lg f(58-61): ACE inhibitory peptide, sequence LKQW, from whey protein hydrolysis with thermolysin"
14,141,"β-Lg f(78-80): ACE inhibitory peptide, sequence IPA, from whey protein hydrolysis with proteinase k (UniProt P02754 94-96, looked up, fragment)"
15,1030,"β-Lg f(81-83): ACE inhibitory peptide, sequence VFK, from whey protein hydrolysis with trypsin (UniProt P02754 97-99, looked up, fragment)"
16,79.8,"β-Lg f(103-105): ACE inhibitory peptide, sequence LLF, from whey protein hydrolysis with thermolysin (UniProt P02754 119-121, looked up, fragment)"

row,Substance,IC50 [µM]
1,ALKAWSVAR [BSA f(208-216)],3
